Source: the NIST ThermoML archive (doi:10.1021/je400781b)

Assay: xn = mol fraction of the nth substance listed
Conditions: 101 kPa, Liquid; for speed of sound: Frequency=2.75 MHz, Pulse-echo method; for mass density: Vibrating tube method

CCCC[n+]1ccn(C)c1.O=S(=O)([N-]S(=O)(=O)C(F)(F)F)C(F)(F)F + C1CCOC1
Conditions	mass density, 293.15 K [kg/m3]	mass density, 298.15 K [kg/m3]	mass density, 303.15 K [kg/m3]	mass density, 308.15 K [kg/m3]	speed of sound, 293.15 K [m/s]	speed of sound, 298.15 K [m/s]	speed of sound, 303.15 K [m/s]	speed of sound, 308.15 K [m/s]
x1 = 0.0507	981.03	975.68	970.55	965.26	1276.2	1254.6	1233.2	1212
x1 = 0.124	1080.62	1075.39	1070.15	1064.96	1257.3	1238.5	1219.9	1201.5
x1 = 0.1963	1153.02	1147.88	1142.73	1137.6	1246.9	1230	1213.2	1196.6
x1 = 0.3526	1258.69	1253.67	1248.66	1243.66	1236.8	1222.4	1208	1193.8
x1 = 0.4962	1321.98	1317.04	1312.1	1307.18	1234.1	1220.9	1207.8	1194.9
x1 = 0.6378	1366.6	1361.72	1356.84	1351.97	1233.5	1221	1208.7	1196.5
x1 = 0.8047	1405.56	1400.72	1395.89	1391.07	1235.6	1223.8	1212.2	1200.7
x1 = 0.9143	1425.59	1420.79	1415.99	1411.2	1236.9	1225.4	1214.1	1203
x1 = 1	1439.23	1434.44	1429.65	1424.88	1237.9	1226.7	1215.6	1204.6

CCCC[n+]1ccn(C)c1.O=S(=O)([N-]S(=O)(=O)C(F)(F)F)C(F)(F)F + CC#N
Conditions	mass density, 293.15 K [kg/m3]	mass density, 298.15 K [kg/m3]	mass density, 303.15 K [kg/m3]	mass density, 308.15 K [kg/m3]	mass density, 313.15 K [kg/m3]	speed of sound, 293.15 K [m/s]	speed of sound, 298.15 K [m/s]	speed of sound, 303.15 K [m/s]	speed of sound, 308.15 K [m/s]	speed of sound, 313.15 K [m/s]
x1 = 0.0506	936.84	931.39	925.93	920.45	914.95	1259.9	1241.7	1223.7	1205.7	1187.9
x1 = 0.1242	1078.45	1073.07	1067.67	1062.27	1056.87	1241	1224.8	1208.7	1192.7	1176.8
x1 = 0.2041	1175.48	1170.19	1164.9	1159.61	1154.32	1235	1220.1	1205.3	1190.6	1176
x1 = 0.341	1275.66	1270.52	1265.38	1260.25	1255.12	1234	1220.4	1206.9	1193.5	1180.3
x1 = 0.5016	1343.88	1338.86	1333.85	1328.85	1323.86	1235.1	1222.4	1209.9	1197.5	1185.2
x1 = 0.6525	1384.46	1379.53	1374.6	1369.69	1364.79	1236.2	1224.1	1212.1	1200.3	1188.6
x1 = 0.7861	1410.16	1405.28	1400.42	1395.58	1390.74	1237.1	1225.4	1213.8	1202.4	1191
x1 = 0.9575	1434.22	1429.41	1424.61	1419.83	1415.06	1237.9	1226.6	1215.4	1204.3	1193.4
x1 = 1	1439.23	1434.44	1429.65	1424.88	1420.12	1237.9	1226.7	1215.6	1204.6	1193.7
